{"source": "patent US20130059362A1", "about": "“BIOSENSORS COMPRISING PROTEIN-BINDING DOMAINS AND FLUORESCENT PROTEINS” (SIGMA-ALDRICH CO., LLC, priority 2010, published 2013)", "system": "EGFR", "assay": "Ligand activation of EGFR monitored by relocalization of the 2×(SH2)Grb2 biosensor in live cells", "format": "cell-based, human", "conditions": "100 ng/mL; much less than EGF", "experimental": "The nucleic acid encoding TagGFP-2×(SH2)Grb2 was cloned into a lentiviral vector. Lentiviral particles were prepared and used to stably transfect A549 cells with the TagGFP:2×(SH2)Grb2 biosensor.\nThe cell nuclei were labeled with 1 μM DRAQ5.\nA variety of other ligands were tested for their ability to activate EGFR, as monitored by the SH2 biosensor. […] Most of the ligands were tested for activity with the TagGFP:2×(SH2)Grb2 biosensor in live cells. […]"}
{"substance": "HGF: a growth factor that binds HGFR", "values": [{"measurement": "Activity (relocalization of the SH2 biosensor)", "result": "showed activity"}]}
